Tests used:
COLO-679 (Melanoma) [1] = assay: Bliss excess, mean over the matrix (fraction); higher = more synergy
Method in brief: (§1)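 Bliss excess equals the observed combination effect minus the expected value EA + EB − EA·EB, where EA and EB are the effects of each agent alone. Combination Emax is the second-highest inhibition within the matrix. Inhibition was scaled from CellTiter-Glo 2.0 luminescence, with 0 set by vehicle wells and 1 by blank wells, after 72 hours of two-drug dosing of cells plated in 1536-well plates.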

[2] = test system: A4-Fuk (B-Lymphoblastic Leukemia); assay: as above
Method in brief: as §1

[3] = test system: ME-180 (Cervical Carcinoma); assay: as above
Method in brief: as §1

[4] = test system: MOLT-4 (T-Lymphoblastic Leukemia); assay: as above
Method in brief: as §1

[5] = test system: KMRC-1 (Kidney Carcinoma); assay: as above
Method in brief: as §1

COLO-679 (Melanoma) [6] = assay: combination Emax (second highest fraction inhibited in the dose matrix, 72 h); higher = more inhibition; extreme values may be limits of the assay
Method in brief: as §1

[7] = test system: Mo-T (Other Blood Carcinomas); assay: as above
Method in brief: as §1

[8] = test system: SW982 (Other Solid Carcinomas); assay: as above
Method in brief: as §1

[9] = test system: MDA-MB-453 (Breast Carcinoma); assay: as above
Method in brief: as §1

[10] = test system: NCI-H1993 (Lung Adenocarcinoma); assay: as above
Method in brief: as §1

[11] = test system: SKN (Other Solid Carcinomas); assay: as above
Method in brief: as §1

[12] = test system: EFO-21 (Ovarian Carcinoma); assay: as above
Method in brief: as §1

[13] = test system: SW872 (Other Solid Carcinomas); assay: as above
Method in brief: as §1

[14] = test system: ML-2 (Acute Myeloid Leukemia); assay: as above
Method in brief: as §1

[15] = test system: MOG-G-UVW (Low Grade Glioma); assay: as above
Method in brief: as §1

[16] = test system: COLO-668 (Small Cell Lung Carcinoma); assay: as above
Method in brief: as §1

[17] = test system: ME-180 (Cervical Carcinoma); assay: as above
Method in brief: as §1

[18] = test system: MOLT-4 (T-Lymphoblastic Leukemia); assay: as above
Method in brief: as §1

[19] = test system: NCI-H522 (Lung Adenocarcinoma); assay: as above
Method in brief: as §1

SK-N-AS (Neuroblastoma) = assay: as above
Method in brief: as §1

Row | Compound | Bliss excess (COLO-679 (Melanoma) [1]) | Bliss excess [2] | Bliss excess [3] | Bliss excess [4] | Bliss excess [5] | combination Emax (COLO-679 (Melanoma) [6]) | combination Emax [7] | combination Emax [8] | combination Emax [9] | combination Emax [10] | combination Emax [11] | combination Emax [12] | combination Emax [13] | combination Emax [14] | combination Emax [15] | combination Emax [16] | combination Emax [17] | combination Emax [18] | combination Emax [19] | combination Emax (SK-N-AS (Neuroblastoma))
1 | Cc1cc2ncnn2cc1Nc1ncc2c(n1)n(C1CCOCC1)c(=O)n2C [AZD7648] + CCN(CCO)CCCOc1ccc2c(Nc3cc(CC(=O)Nc4cccc(F)c4)[nH]n3)ncnc2c1 [AZD2811] (first compound max 10 µM, 7x7, partner max 1 µM) | -0.0126 | 0.0759 | -0.0485 | 0.009 | 0.0039 | 0.203 | 0.37 | 0.621 | 0.362 | 0.573 | 0.282 | 0.297 | 0.271 | 0.832 | 0.686 | 0.158 | 0.389 | 0.965 | 0.213 | 0.46
2 | Cc1cc2ncnn2cc1Nc1ncc2c(n1)n(C1CCOCC1)c(=O)n2C [AZD7648] + CN(C)CCCOc1ccc(-c2ccc3ncc4c(c3c2)n(C2CCOCC2)c(=O)n4C)cn1 [AZD0156] (first compound max 10 µM, 7x7, partner max 1 µM) | -0.0259 | 0.0001 | -0.0167 | 0.0068 | 0.0106 | 0.2 | 0.3 | 0.36 | 0.325 | 0.517 | 0.264 | 0.332 | 0.264 | 0.374 | 0.379 | 0.133 | 0.326 | 0.246 | 0.164 | 0.245
3 | Cc1cc2ncnn2cc1Nc1ncc2c(n1)n(C1CCOCC1)c(=O)n2C [AZD7648] + COc1cc([C@@H]2c3cc4c(cc3[C@@H](O[C@@H]3O[C@@H]5CO[C@@H](C)O[C@H]5[C@H](O)[C@H]3O)[C@H]3COC(=O)[C@H]23)OCO4)cc(OC)c1O [Etoposide] (first compound max 10 µM, 7x7, partner max 10 µM) | -0.0745 | -0.0187 | 0.12 | 0.167 | 0.0859 | 0.588 | 0.909 | 0.861 | 0.497 | 0.79 | 0.784 | 0.438 | 0.817 | 0.955 | 0.9 | 0.862 | 0.941 | 1 | 0.339 | 0.472
4 | Cc1cc2ncnn2cc1Nc1ncc2c(n1)n(C1CCOCC1)c(=O)n2C [AZD7648] + C[C@@H]1COCCN1C2=NC(=NC(=C2)C3(CC3)[S@](=N)(=O)C)C4=C5C=CNC5=NC=C4 [AZD6738] (first compound max 10 µM, 7x7, partner max 10 µM) | -0.0486 | -0.0768 | -0.002 | 0.0427 | 0.0397 | 0.687 | 0.569 | 0.73 | 0.832 | 0.665 | 0.47 | 0.488 | 0.496 | 0.968 | 0.795 | 0.579 | 0.442 | 1 | 0.193 | 0.938
5 | Cc1cc2ncnn2cc1Nc1ncc2c(n1)n(C1CCOCC1)c(=O)n2C [AZD7648] + O=C(c1cc(Cc2n[nH]c(=O)c3ccccc23)ccc1F)N1CCN(C(=O)C2CC2)CC1 [Olaparib] (first compound max 10 µM, 7x7, partner max 10 µM) | -0.039 | -0.038 | -0.0432 | -0.0277 | -0.015 | 0.128 | 0.382 | 0.503 | 0.281 | 0.331 | 0.131 | 0.264 | 0.11 | 0.419 | 0.316 | 0.144 | 0.154 | 0.233 | 0.17 | 0.102
6 | Cc1nc(Nc2ncc(C(=O)Nc3c(C)cccc3Cl)s2)cc(N2CCN(CCO)CC2)n1 [Dasatinib] + CC(=O)Nc1cccc(-n2c(=O)n(C3CC3)c(=O)c3c(Nc4ccc(I)cc4F)n(C)c(=O)c(C)c32)c1 [Trametinib] (first compound max 2 µM, 7x7, partner max 1 µM) | -0.137 | -0.0013 | 0.0171 | 0.0717 | -0.0009 | 0.757 | 0.137 | 0.936 | 0.224 | 0.69 | 0.683 | 0.479 | 0.566 | 0.799 | 0.677 | 0.458 | 0.476 | 0.424 | 0.251 | 0.558
7 | COc1cc2ncnc(Nc3ccc(F)c(Cl)c3)c2cc1OCCCN1CCOCC1 [Gefitinib] + CC(C)n1c(=O)n(C)c2cnc3cc(F)c(-c4ccc(OCCCN5CCCCC5)nc4)cc3c21 [AZD1390] (first compound max 10 µM, 7x7, partner max 0.3 µM) | -0.0901 | -0.0704 | -0.0413 | 0.009 | -0.0702 | 0.0902 | 0.178 | 0.316 | 0.204 | 0.349 | 0.199 | 0.198 | 0.131 | 0.168 | 0.115 | 0.176 | 0.42 | 0.373 | 0.196 | 0.0247
8 | COc1cc2c(cc1OCCCCCOc1cc3c(cc1OC)C(=O)N1C=C(C)C[C@H]1C=N3)N=C[C@@H]1CC(C)=CN1C2=O [SG3199] + O=C(c1cc(Cc2n[nH]c(=O)c3ccccc23)ccc1F)N1CCN(C(=O)C2CC2)CC1 [Olaparib] (first compound max 0.001 µM, 7x7, partner max 10 µM) | -0.0285 | -0.0267 | -0.0495 | 0.0061 | -0.0251 | 0.108 | 0.322 | 0.43 | 0.128 | 0.0845 | 0.0757 | 0.176 | 0.0788 | 0.436 | 0.307 | 0.163 | 0.201 | 0.402 | 0.144 | 0.0679
9 | N#Cc1cnc(Nc2cc(NC[C@H]3CNCCO3)c(C(F)(F)F)cn2)cn1 [SRA737] + C=CCn1c(=O)c2cnc(Nc3ccc(N4CCN(C)CC4)cc3)nc2n1-c1cccc(C(C)(C)O)n1 [AZD1775] (first compound max 10 µM, partner max 1 µM) | -0.107 | 0.0277 | -0.0149 | 0.12 | -0.0048 | 0.806 | 0.565 | 0.759 | 0.667 | 0.88 | 0.518 | 0.431 | 0.683 | 1 | 0.881 | 0.748 | 0.541 | 1 | 0.402 | 0.811
10 | N#Cc1cnc(Nc2cc(NC[C@H]3CNCCO3)c(C(F)(F)F)cn2)cn1 [SRA737] + CCc1c2c(nc3ccc(O)cc13)-c1cc3c(c(=O)n1C2)COC(=O)[C@]3(O)CC [SN-38] (first compound max 10 µM, 7x7, partner max 0.3 µM) | -0.13 | -0.0229 | 0.0247 | 0.002 | -0.0193 | 0.723 | 0.821 | 0.829 | 0.719 | 0.835 | 0.749 | 0.541 | 0.947 | 1 | 0.925 | 0.953 | 0.95 | 1 | 0.635 | 0.763
11 | C[C@@H](c1ccc2nccn2c1)n1nnc2ncc(-c3cnn(C)c3)nc21 [Savolitinib] + CC1(C)CCC(CN2CCN(c3ccc(C(=O)NS(=O)(=O)c4ccc(NCC5CCOCC5)c([N+](=O)[O-])c4)c(Oc4cnc5[nH]ccc5c4)c3)CC2)=C(c2ccc(Cl)cc2)C1 [Venetoclax] (first compound max 1 µM, 7x7, partner max 1 µM) | -0.0676 | -0.0269 | -0.084 | 0.0879 | -0.0899 | 0.109 | 0.114 | 0.128 | 0.15 | 0.754 | 0.169 | 0.212 | 0.136 | 0.46 | 0.392 | 0.295 | 0.114 | 0.476 | 0.111 | 0.12
12 | C[C@@H](c1ccc2nccn2c1)n1nnc2ncc(-c3cnn(C)c3)nc21 [Savolitinib] + Cc1c2c(nn1C)CSCc1cc(n(C)n1)CSc1cc(c3ccccc3c1)OCCCc1c(C(=O)O)n(C)c3c-2c(Cl)ccc13 [AZD5991] (first compound max 1 µM, 7x7, partner max 1 µM) | -0.0398 | 0.0027 | -0.0651 | 0.0706 | -0.0473 | 0.163 | 0.129 | 0.119 | 0.261 | 0.789 | 0.219 | 0.163 | 0.201 | 1 | 0.343 | 0.257 | 0.114 | 0.491 | 0.281 | 0.314
